Results from patent publication US11975005B2, “Treatment of respiratory diseases” (TIANLI BIOTECH PTY LTD, priority 2015, dated 2024).

How the values were obtained:
RSV [1] = assay: HDM allergen challenge with RSV infection in mice; type: in vivo; conditions: HDM allergen challenged mice infected with 2 million RSV virions 3 days prior to post mortem
Procedure: (§1) The conduct of the house dust mite allergy model with RSV complication was conducted as described herein and using the approaches described in Fuchs and Braun 2008 (Curr Drug Targets. 2008 June; 9(6):495-502).

GC responsive genes = assay: Topical (intranasal) PF670462 in naïve Balb/c mice, lung gene expression; type: in vivo; conditions: naïve Balb/C female mice; PF670462 0.6 μg intranasal 4 and 24 hours before post mortem
[2] = system: glucocorticoid response element (GRE) activity; assay: GRE activity / GRE reporter in BEAS-2B cells; type: cell-based, human; conditions: for TGFβ1-induced suppression of the GRE activity stimulated by Dex (30 nM): PF670462 1 or 10 μM 30 min before TGFβ1 for 24 hours
Procedure: Data are presented as the means and SEM of 3 independent experiments. *P<0.05, cf corresponding Dex 30 nM response.
The methods used in Examples 1 to 5 (and 10, 19, 20) are similar to those reported in Salem et al 2012 (Br J Pharmacol. 166:2036-2048) and again in Keenan et al 2014 (Respiratory Research, e15:55) in which methods for cell culture, GRE assays and gene expression measurements are fully described. Additional methods for growth of respiratory syncytial virus (RSV) and rhinovirus (RV) are described in Collins et al 2007 (Respir Physiol Neurobiol. 2007 Jun. 15; 156(3):345-52.) and by Xatzipsalti and papdopoulos, 2007 (Contrib Microbiol. 2007; 14:33-41).

RSV [3] = assay: 5 day model of RSV infection, treatments from day 1; type: in vivo, mice
HDM allergen = assay: House dust mite (HDM) allergen challenge in mice; type: in vivo
Procedure: as §1

SMILES: Nc1nccc(-c2c(-c3ccc(F)cc3)ncn2C2CCCCC2)n1 [PF670462]
- BAL cell number (RSV [1]): not significantly reduced
- effect on the GC responsive genes in lung tissue (GC responsive genes): direct stimulatory effect
- maximum effect of the glucocorticoid (budesonide, dexamethasone 1-100 nM) on GRE reporter construct ([2]; BEAS 2B cells, PF670462 0.3-10 μM): concentration dependently increased
- TGFβ1-induced suppression of the GRE activity stimulated by Dex (30 nM) ([2]; BEAS-2B cells): concentration-dependently attenuated
- TGFβ1-induced suppression of the GRE activity stimulated by Dex (30 nM) ([2]; BEAS-2B cells, listed as PF674062): prevents
- impairment of Dexamethasone 30 nM GRE responses by Rhinovirus (RV16) infection ([2]; BEAS-2B cells, RV16 0.1 or 1.0 MOI, SB431542 1 μM): prevented
- Suppression of glucocorticoid-induced GRE responses to Dex (30 nM) induced by the combination TNFα, IL-13 and IL-4 ([2]; BEAS-2B cells, cytokines each at 1 or 10 ng/ml, PF670462 1 or 10 μM): attenuated
- Levels of IFN β (RSV [3]): enhanced
- Levels of IFN λ 2 (RSV [3]): enhanced
- Levels of IFN λ 3 (RSV [3]): enhanced
- TNFα expression in BAL cells when added to Dex treatment (RSV [3]): further effect
- accumulation of inflammatory cells in the BAL fluid (RSV [3]; administered from day 1): reduced
- TNFα expression levels in BAL cells (RSV [3]; agent alone): directly suppresses
- increase in the BAL protein level (HDM allergen; HDM allergen 25 μg/35 μL daily intranasal, aerosol PF670462 3 mg/ml, Budesonide 0.5 mg/ml): regulated
- Lymphocyte numbers in BAL (HDM allergen; HDM allergen challenged mice, aerosol treatments): reduced
